Active and inactive are the calls of the source. The rule behind the calls is not given here.
Legend:
[1] = AUC (0 to 24 hrs) in C57BL/6J mouse at 20 mg/kg, iv measured up to 24 hrs by LC-MS/MS analysis; assay type: ADME, organism-based; parameters: dose 20 mg/kg, time < 24 hrs, route iv; conditions: in vivo
Mus musculus [2] = assay: Antiinflammatory activity in LPS induced mouse assessed as reduction in TNF-alpha expression in hippocampus at 20 mg/kg, ip pretreated with compound administered once daily for 2 days followed by LPS injection by qPCR analysis; assay type: functional, organism-based; conditions: time 2.0 day
Mus musculus [3] = assay: Antidepressant activity in LPS induced mouse model assessed as rescue of decrease in immobility time at 20 mg/kg, ip pretreated with compound administered once daily for 2 days followed by LPS injection by tail suspension test; assay type: functional, organism-based; conditions: time 2.0 day
[4] = Cmax in C57BL/6J mouse at 20 mg/kg, ip measured up to 24 hrs by LC-MS/MS analysis; assay type: ADME, organism-based; parameters: dose 20 mg/kg, time < 24 hrs, route ip; conditions: in vivo
[5] = Acute toxicity in mouse assessed as pathological changes in liver at 30 mg/kg, ip administered once daily for 20 days by hematoxyin-eosin staining based analysis; assay type: organism-based; conditions: in vivo, 480 h, time 20 day
[6] = Half life in C57BL/6J mouse at 20 mg/kg, iv measured up to 24 hrs by LC-MS/MS analysis; assay type: ADME, organism-based; conditions: in vivo
[7] = AUC (0 to 24 hrs) in C57BL/6J mouse at 20 mg/kg, ip measured up to 24 hrs by LC-MS/MS analysis; assay type: ADME, organism-based; parameters: dose 20 mg/kg, time < 24 hrs, route ip; conditions: in vivo
[8] = biological target: T1, Indoleamine 2,3-dioxygenase 1 (Homo sapiens, UniProt P14902); assay: Inhibition of IDO1 (unknown origin) assessed as reduction in kynurenine production using L-tryptophan as substrate at 50 uM incubated for 1 hr by absorbance based microplate reader analysis relative to control
Target sequence in this assay (P14902 whole entry, looked up): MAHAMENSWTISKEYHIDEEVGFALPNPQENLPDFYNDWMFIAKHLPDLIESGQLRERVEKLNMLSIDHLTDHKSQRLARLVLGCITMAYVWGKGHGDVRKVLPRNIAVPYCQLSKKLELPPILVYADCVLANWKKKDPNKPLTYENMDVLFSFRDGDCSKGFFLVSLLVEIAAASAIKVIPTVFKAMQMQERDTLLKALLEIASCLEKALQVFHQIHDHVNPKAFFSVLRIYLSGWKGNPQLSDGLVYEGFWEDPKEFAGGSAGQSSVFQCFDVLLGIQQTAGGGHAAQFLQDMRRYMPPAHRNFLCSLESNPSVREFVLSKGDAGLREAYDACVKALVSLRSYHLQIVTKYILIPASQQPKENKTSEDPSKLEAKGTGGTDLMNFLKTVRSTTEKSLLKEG

BV-2 [9] = assay: Antiinflammatory activity in LPS stimulated mouse BV-2 cells assessed as decrease in IDO1 expression pretreated with compound for 1 hr followed by LPS stimulation and measured after 24 hrs; assay type: functional, cell-based; conditions: dose 0.25-2 µM, time 25.0 hrs, DDE = dose-dependent effect
[10] = MRT (0 to infinity) in C57BL/6J mouse at 20 mg/kg, iv measured up to 24 hrs by LC-MS/MS analysis; assay type: ADME, organism-based; conditions: in vivo
[11] = MRT (0 to 24 hrs) in C57BL/6J mouse at 20 mg/kg, iv measured up to 24 hrs by LC-MS/MS analysis; assay type: ADME, organism-based; conditions: in vivo
[12] = Cmax in C57BL/6J mouse at 20 mg/kg, iv measured up to 24 hrs by LC-MS/MS analysis; assay type: ADME, organism-based; parameters: time < 24 hrs, dose 20 mg/kg, route iv; conditions: in vivo
[13] = Acute toxicity in mouse assessed as reduction in body weight at 30 mg/kg, ip administered once daily and measured every day for 20 days; assay type: organism-based; conditions: in vivo, 480 h, time 20 day
Mus musculus [14] = assay: Antiinflammatory activity in LPS induced mouse assessed as reduction in iNOS expression in hippocampus at 20 mg/kg, ip pretreated with compound administered once daily for 2 days followed by LPS injection by qPCR analysis; assay type: functional, organism-based; conditions: time 2.0 day
BV-2 [15] = assay: Antiinflammatory activity in LPS stimulated mouse BV-2 cells assessed as reduction in IL-1beta expression at 0.5 to 2 uM pretreated with compound for 1 hr followed by LPS stimulation and measured after 24 hrs by qRT-PCR analysis; assay type: functional, cell-based; conditions: dose 0.5-2 µM, time 25.0 hrs
[16] = MRT (0 to infinity) in C57BL/6J mouse at 20 mg/kg, ip measured up to 24 hrs by LC-MS/MS analysis; assay type: ADME, organism-based; conditions: in vivo
BV-2 [17] = assay: Antiinflammatory activity in LPS stimulated mouse BV-2 cells assessed as reduction in iNOS expression at 0.5 to 2 uM pretreated with compound for 1 hr followed by LPS stimulation and measured after 24 hrs by qRT-PCR analysis; assay type: functional, cell-based; conditions: dose 0.5-2 µM, time 25.0 hrs
BV-2 [18] = assay: Antiinflammatory activity in LPS stimulated mouse BV-2 cells assessed as reduction in COX2 expression at 0.5 to 2 uM pretreated with compound for 1 hr followed by LPS stimulation and measured after 24 hrs by qRT-PCR analysis; assay type: functional, cell-based; conditions: dose 0.5-2 µM, time 25.0 hrs
[19] = Volume of distribution at steady state in C57BL/6J mouse at 20 mg/kg, iv measured up to 24 hrs by LC-MS/MS analysis; assay type: ADME, organism-based; conditions: in vivo, read-out: Vdss
Mus musculus [20] = assay: Antidepressant activity in LPS induced mouse model assessed as suppression of microglia activation in hippocampus at 20 mg/kg, ip pretreated with compound administered once daily for 2 days followed by LPS injection; assay type: functional, organism-based; conditions: time 2.0 day
[21] = MRT (0 to 24 hrs) in C57BL/6J mouse at 20 mg/kg, ip measured up to 24 hrs by LC-MS/MS analysis; assay type: ADME, organism-based; conditions: in vivo
BV-2 [22] = assay: Antiinflammatory activity in LPS stimulated mouse BV-2 cells assessed as reduction in TNF-alpha expression at 0.5 to 2 uM pretreated with compound for 1 hr followed by LPS stimulation and measured after 24 hrs by qRT-PCR analysis; assay type: functional, cell-based; conditions: dose 0.5-2 µM, time 25.0 hrs
Mus musculus [23] = assay: Antidepressant activity in LPS induced mouse model assessed as rescue of decrease in immobility time at 20 mg/kg, ip pretreated with compound administered once daily for 2 days followed by LPS injection by forced swim test; assay type: functional, organism-based; conditions: time 2.0 day
[24] = Tmax in C57BL/6J mouse at 20 mg/kg, iv measured up to 24 hrs by LC-MS/MS analysis; assay type: ADME, organism-based; conditions: in vivo
[25] = Acute toxicity in mouse assessed as pathological changes in spleen at 10 to 20 mg/kg, ip administered once daily for 20 days by hematoxyin-eosin staining based analysis; assay type: organism-based; conditions: in vivo, 480 h, dose 10-20 mg/kg, time 20 day
[26] = biological target: T2, Tryptophan 2,3-dioxygenase (Homo sapiens, UniProt P48775); assay: Inhibition of TDO (unknown origin) assessed as reduction in N-formylkynurenine formation using L-tryptophan as substrate incubated for 75 mins by UV absorbance based analysis
Target sequence in this assay (P48775 whole entry): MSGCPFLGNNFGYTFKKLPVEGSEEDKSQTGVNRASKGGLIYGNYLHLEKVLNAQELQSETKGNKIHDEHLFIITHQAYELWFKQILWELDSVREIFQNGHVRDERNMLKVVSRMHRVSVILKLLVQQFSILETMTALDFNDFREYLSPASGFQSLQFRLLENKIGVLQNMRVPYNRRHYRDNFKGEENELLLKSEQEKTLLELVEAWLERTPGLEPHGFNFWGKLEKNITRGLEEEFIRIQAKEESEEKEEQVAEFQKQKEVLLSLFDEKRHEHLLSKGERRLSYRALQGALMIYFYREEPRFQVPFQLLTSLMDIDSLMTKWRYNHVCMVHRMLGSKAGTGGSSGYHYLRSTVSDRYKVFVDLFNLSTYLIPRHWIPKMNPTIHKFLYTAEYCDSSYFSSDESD

Mus musculus [27] = assay: Antiinflammatory activity in LPS induced mouse assessed as reduction in IL-1beta expression in hippocampus at 20 mg/kg, ip pretreated with compound administered once daily for 2 days followed by LPS injection by qPCR analysis; assay type: functional, organism-based; conditions: time 2.0 day
[28] = biological target: T1, Indoleamine 2,3-dioxygenase 1; assay: Inhibition of IDO1 (unknown origin) assessed as reduction in kynurenine production using L-tryptophan as substrate incubated for 1 hr by absorbance based microplate reader analysis
Target sequence in this assay (P14902 whole entry): as the sequence (P14902 whole entry, looked up) above

[29] = AUC (0 to infinity) in C57BL/6J mouse at 20 mg/kg, iv measured up to 24 hrs by LC-MS/MS analysis; assay type: ADME, organism-based; parameters: dose 20 mg/kg, time < 24 hrs, route iv; conditions: in vivo
Mus musculus [30] = assay: Downregulation of kynurenine level in serum of LPS induced mouse at 20 mg/kg, ip pretreated with compound administered once daily for 2 days followed by LPS injection by UHPLC-HRMS analysis; assay type: functional, organism-based; conditions: time 2.0 day
[31] = biological target: T2, Tryptophan 2,3-dioxygenase; assay: Inhibition of TDO (unknown origin) assessed as reduction in N-formylkynurenine formation using L-tryptophan as substrate at 50 uM incubated for 75 mins by UV absorbance based analysis relative to control
Target sequence in this assay (P48775 whole entry, looked up): as the sequence (P48775 whole entry) above

Mus musculus [32] = assay: Downregulation of kynurenine level in brain of LPS induced mouse at 20 mg/kg, ip pretreated with compound administered once daily for 2 days followed by LPS injection by UHPLC-HRMS analysis; assay type: functional, organism-based; conditions: time 2.0 day
Mus musculus [33] = assay: Antiinflammatory activity in LPS induced mouse assessed as rescue of increase in TNF-alpha expression in activated microglia at 20 mg/kg, ip pretreated with compound administered once daily for 2 days followed by LPS injection; assay type: functional, organism-based; conditions: time 2.0 day

With `c1ccc2c(c1)[nH]c1c(-c3c[nH]cn3)nccc12` the AUC(0-t) at 24 h [1] was 8.55 µg·h/mL, the Activity (Mus musculus [2]) was “Active” and the Activity (Mus musculus [3]) was “Active”. For the same compound, the Cmax [4] was 3.88 µg/mL, the Activity [5] was “Toxic” and the half-life [6] was 2.31 h. The AUC(0-t) at 24 h [7] was 4.49 µg·h/mL, the inhibition [8] was 98% and the Activity (BV-2 [9]) was “Dde”. It also gave an MRT inf [10] of 1.85 h, an MRT last at 24 h [11] of 1.81 h and a Cmax [12] of 5.54 µg/mL. For the same compound, the Activity [13] was “Toxic”, the Activity (Mus musculus [14]) was “Active” and the Activity (BV-2 [15]) was “Active”. The MRT inf [16] was 1.04 h, the Activity (BV-2 [17]) was “Active” and the Activity (BV-2 [18]) was “Active”. The Vd [19] was 4.35 L/kg, the Activity (Mus musculus [20]) was “Active” and the MRT last at 24 h [21] was 1.03 h. For the same compound, the Activity (BV-2 [22]) was “Active”, the Activity (Mus musculus [23]) was “Active” and the Tmax [24] was 0.25 h. The Activity [25] was “Non-Toxic”, the IC50 [26] was 1.15 µM and the Activity (Mus musculus [27]) was “Active”. For the same compound, the IC50 [28] was 3.53 µM, the AUC(0-inf) [29] was 8.56 µg·h/mL and the Activity (Mus musculus [30]) was “Active”. The inhibition [31] was 92%, the Activity (Mus musculus [32]) was “Active” and the Activity (Mus musculus [33]) was “Active”.
